Each block holds one compound with its values, some of them ahead of it.
Tests used:
Assay type in all cases: biochemical
[1] = test system: panel of recombinant human P450s; experiment: Two-step luminescent screen of luciferin derivatives against a panel of recombinant human P450s and HLM; conditions: 50 μM substrate, panel of FIGS. 17-18
Procedure: P450s are Supersomes™ purchased from Discovery Labware (BD/Gentest). […] HLM is human liver microsomes.
1× substrate concentration: 50 μM.
The HLM reactions contained […] reaction, except where indicated otherwise. Control insect cell membranes were at 50 μg/50 μL.
For FIG. 20, the panel of human P450s was screened as described above.

[2] = test system: thermostable luciferase (Luc 146-1H2); experiment: Residual active thermostable luciferase after reaction with derivative (Steady Glo); conditions: substrate 100; +DTT; sample taken 60 min
Procedure: After assembly, the reactions were initiated by addition of 25 μl of the thermostable luciferase stock solution above and mixing the tube contents. A 50 μl sample was immediately removed and placed in a luminometer tube and the light read and the tube then replaced in a tube rack at room temperature. While the light reading was being taken, a 5 μl sample of the remaining reaction (which was kept at room temperature) was diluted into 495 μl of 50 mM BisTris, pH 6.5, 1 mg/ml BSA, 1 mM EDTA prechilled to 4° C. and the tube mixed and placed on ice. The light produced by the samples in the luminometer tubes were re-read at 20, 40, 60, 90 and 120 minutes post enzyme addition. Additional 5 μl samples were taken and diluted as above at 60 and 120 minutes post enzyme addition. Once all these readings and samples were taken, 50 μl of the diluted samples was mixed with 50 μl of Steady Glo in luminometer tubes, the tubes incubated 10 minutes […] then the light produced was read on a Turner TD 20/20 luminometer.

[3] = target: T1, QuantiLum Luciferase (firefly luciferase) (Photinus pyralis, UniProt P08659); experiment: Residual active QuantiLum luciferase after reaction with derivative (Steady Glo)
T1 construct: purchased Promega Corporation El 70
Procedure: (§1) After producing the solutions in Table 37, the volume of all reactions was adjusted to 990 μl with water. […] While the light reading was being taken, a 10 μl sample of the reaction was diluted to 500 μl with enzyme stop solution (cooled on ice to 4° C.) mixed and placed on ice and a second sample of 90 μl of reaction was added to 10 μl of Gel/HPLC stop and the tube placed at −20° C. A timer was started with the start of the first reaction and the start times of the remaining reactions was noted. At 15, 30, 45 and 60 minutes, each reaction was sampled as above and the light produced in the luminometer tubes was measured. At 7 and 22 minutes, the light produced in the luminometer tubes was read, but the reactions were not sampled.
After all samples were taken, 50 μl of the sample diluted into enzyme stop solution was mixed with 50 μl of Steady Glo Luciferase Reagent (Promega) and the light produced measured after incubating at room temperature for 10 minutes. This measured the active luciferase in the initial reaction.
as §1, with “40,” for “37,”, “−200” for “−20°”

[4] = target: T1, QuantiLum Luciferase (firefly luciferase); experiment: Light emission of QuantiLum firefly luciferase with luciferin derivatives; conditions: for Light reading (Turner 20/20) at time 0 / Light reading at time 0 min: 0 min; for Light reading (Turner 20/20) at time 7 / Light reading at time 7 min: 7 min; for Light reading (Turner 20/20) at time 15 / Light reading at time 15 min: 15 min; for Light reading (Turner 20/20) at time 22 / Light reading at time 22 min: 22 min; for Light reading (Turner 20/20) at time 30 / Light reading at time 30 min: 30 min; for Light reading (Turner 20/20) at time 45 / Light reading at time 45 min: 45 min; for Light reading (Turner 20/20) at time 60 / Light reading at time 60 min: 60 min
Procedure: Gel and HPLC stop solution. Solid EDTA (free acid) was placed in a beaker with water and the pH of the solution adjusted to pH 7.0. The solution was then adjusted in volume to produce a solution 400 mM in EDTA.
Enzyme stop solution. A solution was prepared containing 20 mM Bis Tris, pH 6.5, 2 mM EDTA and 1 mg/ml bovine serum albumin.
Reaction buffer (2×). A solution was made containing 100 mM HEPES buffer, pH 8.0; 10 mM MgCl2.
DTT stock. Solid DTT (dithiothreitol) was dissolved in water and then adjusted to pH 8.0 with solid sodium hydroxide. The solution was then adjusted in volume to produce a solution 1 M in DTT.
as §1
as §1, with “40,” for “37,”, “−200” for “−20°”
The DTT, Coenzyme A, and QuantiLum stock solutions are the same as those described herein.
This solution was diluted 1:1 with water to produce an enzyme solution labeled “No addition.” This solution was diluted 1:1 with 400 mM DTT, pH 8.0 to produce a solution labeled+DTT. This solution was diluted 1: 1 with 4 mM Coenzyme A to produce a solution labeled+Co A. Finally, this solution was diluted 1: 1 with a solution having both 4 mM Coenzyme A and 400 mM DTT to produce a solution labeled+Co A & DTT.
50 μl samples of these solutions were placed in the wells of luminometer microtiter plates, row A to row G, respectively. Row H of the plates was given 50 μl of water.
Reactions in these plates were initiated by addition of 50 μl of solution containing QuantiLum luciferase using a 12 channel micropipette. The solutions added to the rows were: columns 1, 5, and 9—no addition solution; columns 2, 6, and 10—+Co A solution; columns 3, 7, and 11—+DTT solution, and; columns 4, 8, and 12—+Co A and DTT solution. After addition of the enzyme solution to the first row on every plate, a timer was started. After addition of the enzyme solution to the last row on each plate, the plate was sealed and read on a Veritas luminometer.

T1 sequence (P08659 whole entry): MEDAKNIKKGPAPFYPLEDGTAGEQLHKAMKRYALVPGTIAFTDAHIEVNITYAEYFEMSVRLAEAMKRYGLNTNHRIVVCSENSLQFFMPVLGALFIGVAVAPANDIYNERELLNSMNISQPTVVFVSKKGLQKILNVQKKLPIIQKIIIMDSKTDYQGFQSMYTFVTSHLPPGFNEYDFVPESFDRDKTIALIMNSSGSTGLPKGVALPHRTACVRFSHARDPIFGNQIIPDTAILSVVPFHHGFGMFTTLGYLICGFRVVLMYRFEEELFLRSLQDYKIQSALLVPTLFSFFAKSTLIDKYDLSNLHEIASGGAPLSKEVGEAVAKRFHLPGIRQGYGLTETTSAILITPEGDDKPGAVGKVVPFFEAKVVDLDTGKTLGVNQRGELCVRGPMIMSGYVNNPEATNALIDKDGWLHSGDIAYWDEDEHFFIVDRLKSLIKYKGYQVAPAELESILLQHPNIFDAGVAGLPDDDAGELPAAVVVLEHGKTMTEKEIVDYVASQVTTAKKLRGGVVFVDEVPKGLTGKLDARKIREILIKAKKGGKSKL

Compound: COC(=O)[C@H]1CSC(c2nc3ccc(OC)cc3s2)=N1 [carboxyl ester of luciferin-ME, carboxyl methyl ester of luciferin-ME]
P450 enzyme activity / selectivity (words) [1]: reacted strongly with several other P450s including CYP2C19

Compound: O=C(O)[C@H]1CSC(c2nc3ccc(OCc4c(F)c(F)c(F)c(F)c4F)cc3s2)=N1 [6′-(2,3,4,5,6-pentafluorobenzyloxy)-luciferin]
P450 enzyme activity / selectivity (words) [1]: selective for three members of the CYP3A subfamily, CYP3A4, CYP3A5 and CYP3A7
P450 enzyme activity / selectivity (words) ([1]; listed as 6(2,3,4,5,6 pentafluorbenzyloxy)-luciferin): showed substantial activity with CYP3A4 and did not show substantial cross reactivity with CYP4F12

Compound: Cc1cc(C)c(COc2ccc3nc(C4=N[C@@H](C(=O)O)CS4)sc3c2)c(C)c1 [6′(2,4,6-trimethylbenzyloxy)-luciferin]
P450 enzyme activity / selectivity (words) [1]: selective for three members of the CYP3A subfamily, CYP3A4, CYP3A5 and CYP3A7
P450 enzyme activity / selectivity (words) ([1]; listed as 6(2,4,6 trimethylbenzyl)-luciferin): showed substantial activity with CYP3A4 and did not show substantial cross reactivity with CYP4F12

P450 enzyme activity / selectivity (words) [1]: substrate for 4A11
Compound: COc1ccc2cc(C3=N[C@@H](C(=O)O)CS3)ccc2c1 [Naphthylluciferin 6-methyl ether]

P450 enzyme activity / selectivity (words) [1]: extremely low activity with CYP2D6
Compound: COc1ccc2nc(C3=N[C@@H](C(=O)O)CS3)sc2c1 [luciferin 6-methyl ether, reference compound]

Compound: O=C(O)[C@H]1CSC(c2nc3ccc(OCc4ccccc4)cc3s2)=N1 [L'in-BE]
light value of diluted reaction sample in Steady Glo [2]: 962.1

Compound: O=C(O)[C@H]1CSC(c2nc3ccc(OCCO)cc3s2)=N1 [2 hydroxyethoxyluciferin derivative, 6′-(2-hydroxyethoxyl) luciferin]
loss of luciferase activity on transformation of substrate ([3]; no additive (reactions 3A, 4A)): significant and substantial reduction in enzyme activity
Light reading (Turner 20/20) at time 0 ([4]; +Co A): 810,864
Light reading (Turner 20/20) at time 7 ([4]; +Co A): 125,718
Light reading (Turner 20/20) at time 15 ([4]; +Co A): 61,287
Light reading (Turner 20/20) at time 22 ([4]; +Co A): 326,424
Light reading (Turner 20/20) at time 30 ([4]; +Co A): 169,972
Light reading (Turner 20/20) at time 45 ([4]; +Co A): 78,909
Light reading (Turner 20/20) at time 60 ([4]; +Co A): 45,156
Light reading (Turner 20/20) at time 0 ([4]; +DTT): 2,515,513
Light reading (Turner 20/20) at time 7 ([4]; +DTT): 294,885
Light reading (Turner 20/20) at time 15 ([4]; +DTT): 146,849
Light reading (Turner 20/20) at time 22 ([4]; +DTT): 335,031
Light reading (Turner 20/20) at time 30 ([4]; +DTT): 237,487
Light reading (Turner 20/20) at time 60 ([4]; +DTT): 67,064
Light reading (Turner 20/20) at time 0 ([4]; No Additive): 749,597
Light reading (Turner 20/20) at time 7 ([4]; No Additive): 114,541
Light reading (Turner 20/20) at time 15 ([4]; No Additive): 63,691
Light reading (Turner 20/20) at time 22 ([4]; No Additive): 259,945
Light reading (Turner 20/20) at time 30 ([4]; No Additive): 233,600
Light reading (Turner 20/20) at time 45 ([4]; No Additive): 51,233
Light reading (Turner 20/20) at time 60 ([4]; No Additive): 44,782
Light reading (Turner 20/20) at time 0 ([4]; no ATP): 87
Light reading (Turner 20/20) at time 7 ([4]; no ATP): 106
Light reading (Turner 20/20) at time 15 ([4]; no ATP): 387,497
Light reading (Turner 20/20) at time 22 ([4]; no ATP): 218,745
Light reading (Turner 20/20) at time 45 ([4]; no ATP): 11,499
Light reading (Turner 20/20) at time 60 ([4]; no ATP): 20,100

Compound: O=C(O)[C@H]1CSC(c2nc3ccc(OCc4ccccc4)cc3s2)=N1 [Luc’in BE]
Light reading from residual active enzyme at time 0 min ([3]; +Co A): 186.7
Light reading from residual active enzyme at time 15 min ([3]; +Co A): 179.6
Light reading from residual active enzyme at time 30 min ([3]; +Co A): 179.4
Light reading from residual active enzyme at time 45 min ([3]; +Co A): 157.9
Light reading from residual active enzyme at time 60 min ([3]; +Co A): 161.8
Light reading from residual active enzyme at time 0 min ([3]; +DTT): 194
Light reading from residual active enzyme at time 15 min ([3]; +DTT): 233.7
Light reading from residual active enzyme at time 30 min ([3]; +DTT): 224.7
Light reading from residual active enzyme at time 45 min ([3]; +DTT): 219.5
Light reading from residual active enzyme at time 60 min ([3]; +DTT): 226.4
Light reading from residual active enzyme at time 0 min ([3]; +EDTA): 170
Light reading from residual active enzyme at time 15 min ([3]; +EDTA): 142.7
Light reading from residual active enzyme at time 30 min ([3]; +EDTA): 140.4
Light reading from residual active enzyme at time 45 min ([3]; +EDTA): 141.7
Light reading from residual active enzyme at time 60 min ([3]; +EDTA): 135.4
Light reading from residual active enzyme at time 0 min ([3]; No addition): 129.7
Light reading from residual active enzyme at time 15 min ([3]; No addition): 69.9
Light reading from residual active enzyme at time 30 min ([3]; No addition): 47.31
Light reading from residual active enzyme at time 45 min ([3]; No addition): 37.94
Light reading from residual active enzyme at time 60 min ([3]; No addition): 29.08
Light reading from residual active enzyme at time 0 min ([3]; w/o ATP): 168.3
Light reading from residual active enzyme at time 15 min ([3]; w/o ATP): 174.1
Light reading from residual active enzyme at time 30 min ([3]; w/o ATP): 171.7
Light reading from residual active enzyme at time 45 min ([3]; w/o ATP): 172.9
Light reading from residual active enzyme at time 60 min ([3]; w/o ATP): 164
Light reading at time 0 min ([4]; +Co A): 139.5
Light reading at time 7 min ([4]; +Co A): 11.92
Light reading at time 15 min ([4]; +Co A): 10.99
Light reading at time 22 min ([4]; +Co A): 9.941
Light reading at time 30 min ([4]; +Co A): 7.379
Light reading at time 45 min ([4]; +Co A): 7.284
Light reading at time 60 min ([4]; +Co A): 6.433
Light reading at time 0 min ([4]; +DTT): 948
Light reading at time 7 min ([4]; +DTT): 532.8
Light reading at time 15 min ([4]; +DTT): 417
Light reading at time 22 min ([4]; +DTT): 369.5
Light reading at time 30 min ([4]; +DTT): 331.6
Light reading at time 45 min ([4]; +DTT): 273.5
Light reading at time 60 min ([4]; +DTT): 226.9
Light reading at time 0 min ([4]; +EDTA): 1.004
Light reading at time 7 min ([4]; +EDTA): 0.771
Light reading at time 15 min ([4]; +EDTA): 0.639
Light reading at time 22 min ([4]; +EDTA): 0.562
Light reading at time 30 min ([4]; +EDTA): 0.461
Light reading at time 45 min ([4]; +EDTA): 0.425
Light reading at time 60 min ([4]; +EDTA): 0.354
Light reading at time 0 min ([4]; No addition): 135.2
Light reading at time 7 min ([4]; No addition): 22.61
Light reading at time 15 min ([4]; No addition): 12.79
Light reading at time 22 min ([4]; No addition): 9.256
Light reading at time 30 min ([4]; No addition): 6.928
Light reading at time 45 min ([4]; No addition): 4.879
Light reading at time 60 min ([4]; No addition): 3.311
Light reading at time 0 min ([4]; w/o ATP): 0.015
Light reading at time 7 min ([4]; w/o ATP): 0
Light reading at time 15 min ([4]; w/o ATP): 0.008
Light reading at time 22 min ([4]; w/o ATP): 0.005
Light reading at time 30 min ([4]; w/o ATP): 0
Light reading at time 45 min ([4]; w/o ATP): 0
Light reading at time 60 min ([4]; w/o ATP): 0.01
